# Results published in patent US20220289816A1, “IMMUNOTHERAPY WITH B*07 RESTRICTED PEPTIDES AND COMBINATION OF PEPTIDES AGAINST CANCERS AND RELATED METHODS” (Immatics Biotechnologies GmbH, priority 2018, published 2022).
# What was measured:
# CD8+ T cells = assay: In vitro immunogenicity: in vitro T-cell priming assay with aAPCs loaded with peptide/MHC complexes and anti-CD28 antibody, pMHC multimer readout; assay type: cell-based, human; conditions: pMHC multimer readout after priming of CD8+ T cells
# Excerpt: In order to obtain information regarding the immunogenicity of the TUMAPs of the present invention, the inventors performed investigations using an in vitro T-cell priming assay based on repeated stimulations of CD8+ T cells with artificial antigen presenting cells (aAPCs) loaded with peptide/MHC complexes and anti-CD28 antibody.
# In order to perform in vitro stimulations by artificial antigen presenting cells loaded with peptide-MHC complex (pMHC) and anti-CD28 antibody, the inventors first isolated CD8+ T cells from fresh HLA-B*07 leukapheresis products via positive selection using CD8 microbeads (Miltenyi Biotec, Bergisch-Gladbach, Germany) of healthy donors obtained from the University clinics Mannheim, Germany, after informed consent.
# PBMCs and isolated CD8+ lymphocytes were incubated in T-cell medium (TCM) until use consisting of RPMI-Glutamax (Invitrogen, Karlsruhe, Germany) supplemented with 10% heat inactivated human AB serum (PAN-Biotech, Aidenbach, Germany), 100 U/ml Penicillin/100 μg/ml Streptomycin (Cambrex, Cologne, Germany), 1 mM sodium pyruvate (CC Pro, Oberdorla, Germany), 20 μg/ml Gentamycin (Cambrex). 2.5 ng/ml IL-7 (PromoCell, Heidelberg, Germany) and 10 U/ml IL-2 (Novartis Pharma, Nürnberg, Germany) were also added to the TCM at this step.
# Generation of pMHC/anti-CD28 coated beads, T-cell stimulations and readout was performed in a highly defined in vitro system using four different pMHC molecules per stimulation condition and 8 different pMHC molecules per readout condition.
# The purified co-stimulatory mouse IgG2a anti human CD28 Ab 9.3 (Jung et al., 1987) was chemically biotinylated using Sulfo-N-hydroxysuccinimidobiotin as recommended by the manufacturer (Perbio, Bonn, Germany). Beads used were 5.6 μm diameter streptavidin coated polystyrene particles (Bangs Laboratories, Illinois, USA).
# 800.000 beads/200 μl were coated in 96-well plates in the presence of 4×12.5 ng different biotin-pMHC, washed and 600 ng biotin anti-CD28 were added subsequently in a volume of 200 μl. Stimulations were initiated in 96-well plates by co-incubating 1×10^6 CD8+ T cells with 2×10^5 washed coated beads in 200 μl TCM supplemented with 5 ng/ml IL-12 (PromoCell) for 3 days at 37° C. Half of the medium was then exchanged by fresh TCM supplemented with 80 U/ml IL-2 and incubating was continued for four days at 37° C. This stimulation cycle was performed for a total of three times. For the pMHC multimer readout using 8 different pMHC molecules per condition, a two-dimensional combinatorial coding approach was used as previously described (Andersen et al., 2012) with minor modifications encompassing coupling to five different fluorochromes. Finally, multimeric analyses were performed by staining the cells with Live/dead near IR dye (Invitrogen, Karlsruhe, Germany), CD8-FITC antibody clone SK1 (BD, Heidelberg, Germany) and fluorescent pMHC multimers. For analysis, a BD LSRII SORP cytometer equipped with appropriate lasers and filters was used. Peptide specific cells were calculated as percentage of total CD8+ cells. Evaluation of multimeric analysis was done using the FlowJo software (Tree Star, Oregon, USA). In vitro priming of specific multimer+CD8+ lymphocytes was detected by comparing to negative control stimulations.
# HLA-B*07 = HLA-B*07 (Homo sapiens, UniProt P01889); assay: MHC binding assay (UV-ligand exchange, ELISA of stabilized MHC complexes); conditions: peptide exchange yield on HLA-B*07, UV-ligand exchange
# Outline: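 Peptide–MHC complexes were made by UV-ligand exchange, in which a UV-cleavable peptide is replaced by the test peptide. Exchange yield was measured by ELISA of stabilized complexes on streptavidin-coated plates, using HRP anti-β2m detection (1 h, 37 °C), TMB substrate and absorbance at 450 nm.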
Substance,Wells positive [%] (CD8+ T cells; Table 10a),Wells positive [%] (CD8+ T cells; Table 10b),Peptide exchange (HLA-B*07)
392 (GPQPWHAAL; listed as Homo sapiens) [compound 392],++ (20%-49% = ++),,
391 (APRPASSL; listed as Homo sapiens) [compound 391],+ (<20% = +),,
4 (GPKKFIVKL; listed as Homo sapiens) [compound 4],,+ (<20% = +),+++ (>50 = +++)
17 (SPAAPLSPASSL; listed as Homo sapiens) [compound 17],,+ (<20% = +),++++ (>75% = ++++)
48 (RPRYSIGL; listed as Homo sapiens) [compound 48],,+ (<20% = +),+++ (>50 = +++)
396 (VPDVAQFVL; listed as Homo sapiens) [compound 396],++ (20%-49% = ++),,
408 (YPKDIYSSF; listed as Homo sapiens) [compound 408],++ (20%-49% = ++),,
9 (RPDSRLLEL; listed as Homo sapiens) [compound 9],,+++ (50%-69% = +++),++++ (>75% = ++++)
406 (LPDGSRVEL; listed as Homo sapiens) [compound 406],++++ (>=70% = ++++),,
405 (LPFDGPGGIL; listed as Homo sapiens) [compound 405],++++ (>=70% = ++++),,
420 (SPRWLPVSL; listed as Homo sapiens) [compound 420],++++ (>=70% = ++++),,
33 (LPRGLSPARQL; listed as Homo sapiens) [compound 33],,++ (20%-49% = ++),+++ (>50 = +++)
364 (KPRTPFTTAQL; listed as Homo sapiens) [compound 364],,+ (<20% = +),++++ (>75% = ++++)
12 (LPNTGRIGQLL; listed as Homo sapiens) [compound 12],,++ (20%-49% = ++),++++ (>75% = ++++)
45 (TRPWSGPYIL; listed as Homo sapiens) [compound 45],,+ (<20% = +),+++ (>50 = +++)
430 (RPRALRDLQLL; listed as Homo sapiens) [compound 430],+++ (50%-69% = +++),,
445 (RPAATAVISL; listed as Homo sapiens) [compound 445],+ (<20% = +),,
3 (MPYVVLTAL; listed as Homo sapiens) [compound 3],,+ (<20% = +),++++ (>75% = ++++)
38 (RPSFPNLTSF; listed as Homo sapiens) [compound 38],,+ (<20% = +),++++ (>75% = ++++)
419 (SPMWHVQQL; listed as Homo sapiens) [compound 419],++++ (>=70% = ++++),,
415 (LPSDSHFKITF; listed as Homo sapiens) [compound 415],++ (20%-49% = ++),,
366 (SPTLRQLDL; listed as Homo sapiens) [compound 366],,++ (20%-49% = ++),++++ (>75% = ++++)
398 (SPASRSISL; listed as Homo sapiens) [compound 398],+ (<20% = +),,
393 (APAAWLRSA; listed as Homo sapiens) [compound 393],+++ (50%-69% = +++),,

Substance,Wells positive [%] (CD8+ T cells; Table 10a),Wells positive [%] (CD8+ T cells; Table 10b),Peptide exchange (HLA-B*07)
53 (SPRIPFSTF; listed as Homo sapiens) [compound 53],,+ (<20% = +),++++ (>75% = ++++)
56 (LPALLRSGLTL; listed as Homo sapiens) [compound 56],,+++ (50%-69% = +++),++++ (>75% = ++++)
440 (YPRTITPGM; listed as Homo sapiens) [compound 440],+ (<20% = +),,
23 (VPRPTSTVGL; listed as Homo sapiens) [compound 23],,++ (20%-49% = ++),+++ (>50 = +++)
1 (RPRSLQCVSL; listed as Homo sapiens) [compound 1],,+ (<20% = +),++++ (>75% = ++++)
410 (SPRSWIQVQI; listed as Homo sapiens) [compound 410],+ (<20% = +),,
51 (SPVFYVQTL; listed as Homo sapiens) [compound 51],,+ (<20% = +),++++ (>75% = ++++)
433 (IPEPSAQQL; listed as Homo sapiens) [compound 433],+ (<20% = +),,
61 (LPRIPFSTF; listed as Homo sapiens) [compound 61],,++ (20%-49% = ++),++++ (>75% = ++++)
423 (SPRVYWLGL; listed as Homo sapiens) [compound 423],++++ (>=70% = ++++),,
437 (FPYPYAERL; listed as Homo sapiens) [compound 437],+++ (50%-69% = +++),,
390 (SPRMSGLLSQT; listed as Homo sapiens) [compound 390],+++ (50%-69% = +++),,
5 (LPSLSHCSQL; listed as Homo sapiens) [compound 5],,++ (20%-49% = ++),++++ (>75% = ++++)
443 (VPDGVSKVL; listed as Homo sapiens) [compound 443],+++ (50%-69% = +++),,
418 (RPMTPTQIGPSL; listed as Homo sapiens) [compound 418],+ (<20% = +),,
399 (NPFYPEVEL; listed as Homo sapiens) [compound 399],+ (<20% = +),,
414 (KPSESIYSAL; listed as Homo sapiens) [compound 414],++ (20%-49% = ++),,
427 (VPSSRILQL; listed as Homo sapiens) [compound 427],+++ (50%-69% = +++),,
429 (RPRALRDLQL; listed as Homo sapiens) [compound 429],++ (20%-49% = ++),,
407 (FPRLVGPDF; listed as Homo sapiens) [compound 407],+++ (50%-69% = +++),,
388 (SPSVSQLSVL; listed as Homo sapiens) [compound 388],++++ (>=70% = ++++),,
411 (IPNWARQDL; listed as Homo sapiens) [compound 411],++++ (>=70% = ++++),,
425 (YPRGNHWAVGHL; listed as Homo sapiens) [compound 425],++ (20%-49% = ++),,
389 (APLPRPGAVL; listed as Homo sapiens) [compound 389],++ (20%-49% = ++),,
